Measurements published in US20230203041A1, “ANTAGONISTS OF THE ADENOSINE A2A RECEPTOR” (AdoRx Therapeutics Limited, priority 2020, published 2023).

How the values were obtained:
[1] = target: T1, human Adenosine A1 receptor (Homo sapiens, UniProt P30542); test: Adenosine receptor TR-FRET binding assay (CA200645 displacement), A1
T1 sequence (P30542 1-326): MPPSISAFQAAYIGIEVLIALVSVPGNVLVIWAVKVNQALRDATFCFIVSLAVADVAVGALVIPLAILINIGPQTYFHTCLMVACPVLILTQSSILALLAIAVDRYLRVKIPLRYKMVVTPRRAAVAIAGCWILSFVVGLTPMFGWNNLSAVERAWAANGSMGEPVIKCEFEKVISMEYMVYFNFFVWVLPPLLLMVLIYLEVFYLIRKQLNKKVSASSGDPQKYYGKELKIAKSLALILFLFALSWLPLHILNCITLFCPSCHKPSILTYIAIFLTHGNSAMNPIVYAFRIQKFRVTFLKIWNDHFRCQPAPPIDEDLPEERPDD

[2] = target: T2, human Adenosine A2a receptor (Homo sapiens, UniProt P29274); test: Adenosine receptor TR-FRET binding assay (CA200645 displacement), A2a; settings: 100 nM CA200645, CHO cell membranes, 2 hours at room temperature
T2 construct: expressed in transfected cells; host or cells: CHO cell membranes
T2 sequence (P29274 whole entry): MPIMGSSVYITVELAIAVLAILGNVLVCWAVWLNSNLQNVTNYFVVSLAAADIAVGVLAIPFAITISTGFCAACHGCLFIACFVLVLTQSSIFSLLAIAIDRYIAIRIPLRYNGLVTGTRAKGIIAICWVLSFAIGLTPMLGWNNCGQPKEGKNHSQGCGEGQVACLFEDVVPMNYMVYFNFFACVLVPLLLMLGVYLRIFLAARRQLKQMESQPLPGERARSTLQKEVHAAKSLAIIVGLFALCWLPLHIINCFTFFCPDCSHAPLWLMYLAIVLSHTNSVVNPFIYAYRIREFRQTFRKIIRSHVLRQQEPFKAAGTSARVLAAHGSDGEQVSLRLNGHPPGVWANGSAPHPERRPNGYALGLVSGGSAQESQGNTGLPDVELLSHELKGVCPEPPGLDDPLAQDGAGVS
Procedure: All FRET binding experiments were conducted at room temperature in white 384-well plates, in assay binding buffer containing 1×LabMed (Cisbio, France), 100 μg/mL saponin, 1% DMSO and 0.02% pluronic acid. Binding of the fluorescently labelled Adenosine receptor antagonist XAC (CA200645, FRET acceptor) to terbium-labelled A1, A2a, A2b and A3 adenosine receptors (FRET donors) was detected by time-resolved FRET due to the close proximity of the donor and acceptor in a binding event. To investigate the ability of unlabelled test compounds to bind to Adenosine A1, A2a, A2b and A3 receptors, dose response curves were constructed that determined the ability of a range of concentrations to inhibit the binding of 30 nM CA200645 to the A2b receptor and 100 nM CA200645 to the A1, A2a, and A3 receptor.
Serial dilution (1:3 dilutions) of test compounds in neat DMSO and transfer of a 400 nL sample of test compound into the assay plate was carried out using the Mosquito (TTP Labtech, UK). The compound samples were incubated for 2 hours at room temperature with a fixed concentration of CA200645 defined for each receptor (see above) and CHO cell membranes containing the human Adenosine A1 (0.5 μg/well), A2a (0.3 μg/well), A2b (1 μg/well) or A3 (1 μg/well) receptor in 40 μL of assay buffer. Total and non-specific binding of CA200645 was determined in the absence and presence of 10 μM XAC, respectively. Following 2 hours incubation, the level of CA200645 binding was detected on a Pherastar FSX (BMG Labtech, Germany) using standard TR-FRET settings. The terbium donor was excited with three laser flashes at a wavelength of 337 nm, and donor and acceptor emission was detected at 620 nm and 665 nm wavelengths, respectively. FRET ratios were obtained by multiplying the acceptor/donor ratio value by 10,000. Specific binding was determined by subtracting the non-specific binding FRET ratio from the total binding FRET ratio. Compound IC50 curves were analysed using GraphPad Prism 7.0 (GraphPad, USA) and Ki affinity values were determined from the obtained IC50 values using the method of Cheng and Prusoff.

[3] = target: T3, human Adenosine A3 receptor (Homo sapiens, UniProt P0DMS8); test: Adenosine receptor TR-FRET binding assay (CA200645 displacement), A3
T3 sequence (P0DMS8 1-318): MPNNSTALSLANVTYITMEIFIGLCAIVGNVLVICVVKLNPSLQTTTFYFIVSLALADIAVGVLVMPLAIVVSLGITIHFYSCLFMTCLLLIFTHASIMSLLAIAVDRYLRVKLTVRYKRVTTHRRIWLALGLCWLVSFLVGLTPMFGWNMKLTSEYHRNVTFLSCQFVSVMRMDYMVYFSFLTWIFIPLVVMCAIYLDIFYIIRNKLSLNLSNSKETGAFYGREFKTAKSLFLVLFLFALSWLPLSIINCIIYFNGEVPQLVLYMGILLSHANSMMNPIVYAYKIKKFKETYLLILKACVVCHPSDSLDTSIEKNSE

| Compound | Ki [1] [µM] | Ki [2] [µM] | Ki [3] [µM] |
| --- | --- | --- | --- |
| N#Cc1c(-c2ccco2)nn2ccc(N3CCN(CCO)CC3)nc12 [Example 52, 2-(2-Furyl)-5-[4-(2-hydroxyethyl)piperazin-1-yl]pyrazolo[1,5-a]pyrimidine-3-carbonitrile] | 1.15 | 0.114 | > 1 |
| CN1CCC[C@@H]1CNc1ccn2nc(-c3ccco3)c(C#N)c2n1 [Example 81, 2-(2-Furyl)-5-[[(2R)-1-methylpyrrolidin-2-yl]methylamino]pyrazolo[1,5-a]pyrimidine-3-carbonitrile] | 1.26 | 0.202 | > 1 |
| Nc1ccn2nc(-c3ccco3)c(Br)c2n1 [Example 50, 3-Bromo-2-(2-furyl)pyrazolo[1,5-a]pyrimidin-5-amine] | 0.459 | 0.151 | 3.07 |
| Fc1cccc(-c2cc3nc(NCCN4Cc5ccccc5C4)ccn3n2)c1 [Example 66.4, 2-(3-Fluorophenyl)-N-(2-isoindolin-2-ylethyl)pyrazolo[1,5-a]pyrimidin-5-amine] | 0.803 | 0.706 | 2.9 |
| N#Cc1cccc(-c2nn3ccc(NCCN4CCN(c5ccccc5)CC4)nc3c2C#N)c1 [Example 87.1, 2-(3-Cyanophenyl)-5-[2-(4-phenylpiperazin-1-yl)ethylamino]pyrazolo [1,5-a]pyrimidine-3-carbonitrile] | 0.213 | 0.0163 | > 1 |
| C[C@H]1CN(c2ccn3nc(-c4ccco4)c(C#N)c3n2)CCN1C(=O)OC(C)(C)C [Example 37.11] | 2.17 | 0.171 | 2.72 |
| Fc1cccc(-c2nn3ccc(Cl)nc3c2Br)c1 [Example 68, 3-Bromo-5-chloro-2-(3-fluorophenyl)pyrazolo[1,5-a]pyrimidine] |  | 0.572 | > 1 |
| CC(C)(O)CNC(=O)c1ccn2nc(-c3cccc(C#N)c3)c(C#N)c2n1 [Example 14, 3-Cyano-2-(3-cyanophenyl)-N-(2-hydroxy-2-methyl-propyl)pyrazolo[1,5-a]pyrimidine-5-carboxamide] |  | 0.218 | > 1 |
| CC(C)(O)CNC(=O)c1ccn2nc(-c3cccc(C#N)c3)c(-c3ccncn3)c2n1 [Example 13, 2-(3-Cyanophenyl)-N-(2-hydroxy-2-methyl-propyl)-3-pyrimidin-4-yl-pyrazolo[1,5-a]pyrimidine-5-carboxamide] |  | 0.0671 | > 1 |
| N#Cc1c(-c2cnco2)nn2ccc(N3CCN(CCF)CC3)nc12 [Example 62, 5-[4-(2-Fluoroethyl)piperazin-1-yl]-2-oxazol-5-yl-pyrazolo[1,5-a]pyrimidine-3-carbonitrile] |  | 0.365 | > 1 |

The remaining compounds from weak to strong by Ki [2], led by results:

| Ki [1] [µM] | Ki [2] [µM] | Ki [3] [µM] | Compound |
| --- | --- | --- | --- |
|  | 0.694 | > 1 | CC(C)(C)OC(=O)N1CCC(c2ccn3nc(-c4ccco4)c(C#N)c3n2)CC1 [Example 83, Tert-butyl 4-[3-cyano-2-(2-furyl)pyrazolo[1,5-a]pyrimidin-5-yl]piperidine-1-carboxylate] |
| 0.366 | 0.493 | > 1 | O=C(NCc1ccccc1)c1ccn2nc(-c3ccco3)cc2n1 [Example 85, N-Benzyl-2-(2-furyl)pyrazolo[1,5-a]pyrimidine-5-carboxamide] |
| 2.48 | 0.407 | > 1 | Cc1cccnc1CN1CCN(c2ccn3nc(-c4cnco4)c(C#N)c3n2)CC1 [Example 65, 5-[4-[(3-Methyl-2-pyridyl)methyl]piperazin-1-yl]-2-oxazol-5-yl-pyrazolo[1,5-a]pyrimidine-3-carbonitrile] |
| 1.43 | 0.0464 | 0.135 | Ic1c(-c2ccco2)nn2ccc(NCc3ccccc3)nc12 [Example 77, N-Benzyl-2-(2-furyl)-3-iodo-pyrazolo[1,5-a]pyrimidin-5-amine] |
| 0.262 | 0.0226 | > 1 | N#Cc1c(-c2ccco2)nn2ccc(N3CCN(CCF)CC3)nc12 [Example 37.3] |
